# Earlier results as cited in patent publication US20260315500A1, “SOLID CANNABINOID COMPOSITION FOR PARENTERAL USE” (Bender Analytical Holding B.V., priority 2023, published 2026).
# Key:
# [1] = tested on: neuronal and glial cells; conditions: preclinical; functional, neuroimaging, histologic and biochemical studies
# [2] = 23° C.
Compound,neuroprotective effects [1],water solubility [2] [µg/mL]
C=C(C)[C@@H]1CCC(C)=C[C@H]1c1c(O)cc(CCCCC)cc1O [Cannabidiol],"protects neuronal and glial cells, with a remarkable effect on preserving normal myelinogenesis",–
"CCCCCc1cc(O)c2c(c1)OC(C)(C)[C@@H]1CCC(C)=C[C@@H]21 [Tetrahydrocannabinol (THC), Tetrahydrocannabinol]",–,2.8
